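Growth conditions: 96-well plates. Treatment: test compound, 48 hours, 5 concentrations. Analysis: linear interpolation between bracketing concentrations; unreached endpoints set to highest concentration. The concentration for full growth arrest is given as TGI.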
What was measured:
Assay in all cases: growth of human tumour cells (NCI), 48 h
[1] = test system: 786-0 renal
[2] = test system: A498 renal
[3] = test system: A549 NSCLC
[4] = test system: ACHN renal
[5] = test system: CAKI-1 renal
[6] = test system: CCRF-CEM leukemia
[7] = test system: COLO 205 colon
[8] = test system: DU-145 prostate
[9] = test system: EKVX NSCLC
[10] = test system: HCC-2998 colon
[11] = test system: HCT-116 colon
[12] = test system: HCT-15 colon
[13] = test system: HL-60(TB) leukemia
[14] = test system: HOP-62 NSCLC
[15] = test system: HOP-92 NSCLC
[16] = test system: HS 578T breast
[17] = test system: HT29 colon
[18] = test system: IGROV1 ovarian
[19] = test system: K-562 leukemia
[20] = test system: KM12 colon
[21] = test system: LOX IMVI melanoma
[22] = test system: M14 melanoma
[23] = test system: MALME-3M melanoma
[24] = test system: MCF7 breast
[25] = test system: MDA-MB-231 breast
[26] = test system: MDA-N
[27] = test system: MOLT-4 leukemia
[28] = test system: NCI-H23 lung
[29] = test system: NCI-H460 lung
[30] = test system: NCI/ADR-RES ovarian
[31] = test system: OVCAR-3 ovarian
[32] = test system: OVCAR-4 ovarian
[33] = test system: OVCAR-5 ovarian
[34] = test system: OVCAR-8 ovarian
[35] = test system: PC-3 prostate
[36] = test system: RPMI-8226 leukemia
[37] = test system: SF-268 CNS
[38] = test system: SF-295 CNS
[39] = test system: SF-539 CNS
[40] = test system: SK-MEL-2 melanoma
[41] = test system: SK-MEL-28 melanoma
[42] = test system: SK-MEL-5 melanoma
[43] = test system: SK-OV-3 ovarian
[44] = test system: SN12C renal
[45] = test system: SNB-19 CNS
[46] = test system: SNB-75 CNS
[47] = test system: SR leukemia
[48] = test system: SW-620 colon
[49] = test system: T-47D breast
[50] = test system: TK-10 renal
[51] = test system: U251 CNS
[52] = test system: UACC-257 melanoma
[53] = test system: UO-31 renal
[54] = test system: BT-549 breast
[55] = test system: MDA-MB-435
[56] = test system: NCI-H522 lung

## Cc1cccc(N(C(=O)Nc2ccc(Cl)c(Cl)c2)C2=NCC(C)S2)c1 (stereo not drawn)
[1]
  TGI: > 100 µM
[2]
  TGI: > 100 µM
[3]
  TGI: > 100 µM
[4]
  TGI: > 100 µM
[5]
  TGI: > 100 µM
[6]
  TGI: > 100 µM
[7]
  TGI: > 100 µM
[8]
  TGI: > 100 µM
[9]
  TGI: > 100 µM
[10]
  TGI: > 100 µM
[11]
  TGI: > 100 µM
[12]
  TGI: > 100 µM
[13]
  TGI: > 100 µM
[14]
  TGI: > 100 µM
[15]
  TGI: > 100 µM
[16]
  TGI: > 100 µM
[17]
  TGI: > 100 µM
[18]
  TGI: > 100 µM
[19]
  TGI: > 100 µM
[20]
  TGI: > 100 µM
[21]
  TGI: 86.5 µM
[22]
  TGI: > 100 µM
[23]
  TGI: > 100 µM
[24]
  TGI: 58.8 µM
[25]
  TGI: > 100 µM
[26]
  TGI: > 100 µM
[27]
  TGI: > 100 µM
[28]
  TGI: > 100 µM
[29]
  TGI: > 100 µM
[30]
  TGI: > 100 µM
[31]
  TGI: > 100 µM
[32]
  TGI: > 100 µM
[33]
  TGI: > 100 µM
[34]
  TGI: > 100 µM
[35]
  TGI: > 100 µM
[36]
  TGI: > 100 µM
[37]
  TGI: > 100 µM
[38]
  TGI: > 100 µM
[39]
  TGI: > 100 µM
[40]
  TGI: > 100 µM
[41]
  TGI: > 100 µM
[42]
  TGI: 45.8 µM
[43]
  TGI: > 100 µM
[44]
  TGI: > 100 µM
[45]
  TGI: > 100 µM
[46]
  TGI: > 100 µM
[47]
  TGI: > 100 µM
[48]
  TGI: > 100 µM
[49]
  TGI: > 100 µM
[50]
  TGI: 80.3 µM
[51]
  TGI: > 100 µM
[52]
  TGI: > 100 µM
[53]
  TGI: > 100 µM

## COc1ccc2c3c1O[C@H]1C(OC)C=CC4C(C2)N(Cc2cccs2)CCC341 (stereo partly drawn)
[1]
  TGI: > 100 µM
[3]
  TGI: > 100 µM
[54]
  TGI: > 100 µM
[5]
  TGI: > 100 µM
[6]
  TGI: > 100 µM
[9]
  TGI: > 100 µM
[10]
  TGI: > 100 µM
[11]
  TGI: > 100 µM
[12]
  TGI: > 100 µM
[13]
  TGI: > 100 µM
[14]
  TGI: > 100 µM
[15]
  TGI: > 100 µM
[16]
  TGI: > 100 µM
[17]
  TGI: > 100 µM
[18]
  TGI: > 100 µM
[19]
  TGI: > 100 µM
[21]
  TGI: > 100 µM
[22]
  TGI: > 100 µM
[23]
  TGI: > 100 µM
[55]
  TGI: > 100 µM
[26]
  TGI: > 100 µM
[27]
  TGI: > 100 µM
[28]
  TGI: > 100 µM
[29]
  TGI: > 100 µM
[56]
  TGI: > 100 µM
[30]
  TGI: > 100 µM
[31]
  TGI: > 100 µM
[33]
  TGI: > 100 µM
[34]
  TGI: > 100 µM
[36]
  TGI: > 100 µM
[37]
  TGI: > 100 µM
[38]
  TGI: > 100 µM
[43]
  TGI: > 100 µM
[44]
  TGI: > 100 µM
[45]
  TGI: > 100 µM
[47]
  TGI: > 100 µM
[48]
  TGI: > 100 µM
[50]
  TGI: > 100 µM
[52]
  TGI: > 100 µM
[53]
  TGI: > 100 µM

From PubChem BioAssay (NCI)
